Here are results for 16 compounds from ChEMBL document CHEMBL4020801, “New merosesquiterpenes from a Vietnamese marine sponge of Spongia sp. and their biological activities” (Bioorg Med Chem Lett, 2017).

In brackets after ≈: the same amount, converted by molar mass.

One experiment has as its system Klebsiella pneumoniae. Description: Antibacterial activity against Klebsiella pneumoniae NBRC 14940 after 12 hrs by MTT assay. The format is functional. Particulars: NBRC 14940, 12 h. (In general: Tetrazolium assays rely on reduction of a dye to a coloured formazan, in cell work by metabolically active cells.)
A further experiment relates to A549. Description: Cytotoxicity against human A549 cells assessed as decrease in cell viability after 72 hrs by WST8 assay. The experiment is classed as functional, cell-based. Particulars: A549, 72 h.
The test system of a further experiment is WI-38. The experiment can be described thus: Cytotoxicity against human WI38 cells assessed as decrease in cell viability after 72 hrs by WST8 assay. The experiment is classed as cell-based. Particulars: WI-38, 72 h.
In a further experiment the test system is Bacillus subtilis. The experiment can be described thus: Antibacterial activity against Bacillus subtilis NBRC 13719 after 12 hrs by MTT assay. The experiment is classed as functional. Particulars: NBRC 13719, 12 h.
The subject of the next experiment is Staphylococcus aureus. The experiment can be described thus: Antibacterial activity against Staphylococcus aureus NBRC 100910 after 12 hrs by MTT assay. The experiment is classed as functional. The conditions noted are these: NBRC 100910, 12 h.
The next experiment relates to Escherichia coli. Description: Antibacterial activity against Escherichia coli NBRC 102203 after 12 hrs by MTT assay. The experiment is classed as functional. Particulars: NBRC 102203, 12 h.
A further experiment relates to HeLa. Description: Cytotoxicity against human HeLa cells assessed as decrease in cell viability after 72 hrs by WST8 assay. The format is functional, cell-based.
For another experiment, the system named is MCF7. Description: Cytotoxicity against human MCF7 cells assessed as decrease in cell viability after 72 hrs by WST8 assay. The experiment is classed as functional, cell-based. The conditions noted are these: MCF7, 72 h.

`C=C1CCC[C@H]2[C@](C)(CC3=C(O)C(=O)C=C(NCC(C)C)C3=O)[C@@H](C)CC[C@]12C`: the MIC against Klebsiella pneumoniae is greater than 100 µM; in the experiment on Bacillus subtilis, 12.5 µM (≈ 4.99 µg/mL); against Staphylococcus aureus it was 25 µM (≈ 9.99 µg/mL); with Escherichia coli, greater than 100 µM. Besides, the concentration for half-maximal inhibition (IC50) in the experiment with A549 worked out at 6.7 µM; in the experiment with WI-38, 3.5 µM; with HeLa, 7.6 µM; in the experiment on MCF7, 4.6 µM.

In the case of `C=C1CCC[C@@H]2[C@@](C)(Cc3cc(C(=O)OC)cc(O)c3O)[C@H](C)CC[C@@]12C`, the MIC against Klebsiella pneumoniae was greater than 100 µM; with Bacillus subtilis, 6.25 µM (≈ 2.33 µg/mL); against Staphylococcus aureus, 6.25 µM (≈ 2.33 µg/mL); in the experiment on Escherichia coli, greater than 100 µM. The IC50 with A549, in the experiment with WI-38, in the experiment with HeLa and in the experiment on MCF7 was greater than 50 µM each time.

Turning to `C=C1CCC[C@@H]2[C@@](CO)(Cc3cc(C(=O)OC)cc(OC)c3O)[C@H](C)CC[C@@]12C`, the minimum inhibitory concentration (MIC) in the experiment on Klebsiella pneumoniae, in the experiment with Bacillus subtilis, in the experiment with Staphylococcus aureus and against Escherichia coli was greater than 100 µM each time. Moreover, the half-maximal inhibitory concentration (IC50) in the experiment with A549 is greater than 50 µM; in the experiment on WI-38, greater than 50 µM; with HeLa, greater than 50 µM; in the experiment with MCF7 it was 42.6 µM.

With `C=C1CCC[C@H]2[C@](C)(CC3=C(O)C(=O)C=C(NCCCSC)C3=O)[C@@H](C)CC[C@]12C`, the MIC was greater than 100 µM against Klebsiella pneumoniae, 12.5 µM (≈ 5.4 µg/mL) in the experiment on Bacillus subtilis, 12.5 µM (≈ 5.4 µg/mL) with Staphylococcus aureus and greater than 100 µM against Escherichia coli. Further, the IC50 with A549 was 6.2 µM; in the experiment on WI-38, 8.8 µM; in the experiment on HeLa, 8 µM; in the experiment with MCF7, 8.7 µM.

On to `C=C1CCC[C@H]2[C@](C)(CC3=C(O)C(=O)C=C(OCCCC)C3=O)[C@@H](C)CC[C@]12C`, for which the minimal inhibitory concentration (MIC) is greater than 100 µM in the experiment on Klebsiella pneumoniae, 6.25 µM (≈ 2.5 µg/mL) with Bacillus subtilis, 12.5 µM (≈ 5.01 µg/mL) against Staphylococcus aureus and greater than 100 µM in the experiment with Escherichia coli. Further, the half-maximal inhibitory concentration (IC50) in the experiment with A549 was determined as 6.6 µM; with WI-38, 8.2 µM; in the experiment with HeLa, 7.6 µM; with MCF7 it was 9.6 µM.

As to `C=C1CCC[C@@H]2[C@@](C=O)(Cc3cc(C(=O)OC)c(O)c(OC)c3O)[C@H](C)CC[C@@]12C`, the MIC against Klebsiella pneumoniae is greater than 100 µM; in the experiment with Bacillus subtilis, 25 µM (≈ 10.4 µg/mL); against Staphylococcus aureus, greater than 100 µM; against Escherichia coli, greater than 100 µM. Besides, the IC50 in the experiment with A549 amounted to 7.8 µM; in the experiment on WI-38, 8.7 µM; in the experiment on HeLa, 7.2 µM; in the experiment on MCF7, 5 µM.

`C=C1CCC[C@@H]2[C@@](C)(Cc3cc(C(=O)OC)cc(OC)c3O)[C@H](C)CC[C@@]12C`: the minimum inhibitory concentration (MIC) against Klebsiella pneumoniae, in the experiment with Bacillus subtilis, in the experiment on Staphylococcus aureus and against Escherichia coli was greater than 100 µM each time. Further, the IC50 in the experiment with A549, in the experiment with WI-38, in the experiment on HeLa and with MCF7 was greater than 50 µM each time.

With `C=C1CCC[C@H]2[C@](C)(CC3=C(O)C(=O)C=C(NCCc4ccccc4)C3=O)[C@@H](C)CC[C@]12C`, the MIC against Klebsiella pneumoniae is greater than 100 µM; with Bacillus subtilis it was 6.25 µM (≈ 2.8 µg/mL); in the experiment with Staphylococcus aureus it was 6.25 µM (≈ 2.8 µg/mL); with Escherichia coli it was greater than 100 µM. The IC50 in the experiment on A549 came out at 4 µM; in the experiment on WI-38, 3 µM; in the experiment with HeLa, 5 µM; in the experiment on MCF7 it was 6.5 µM.

On to `C=C1CCC[C@@H]2[C@@](C=O)(Cc3cc(C(=O)OC)cc(OC)c3O)[C@H](C)CC[C@@]12C`, for which the minimal inhibitory concentration (MIC) in the experiment with Klebsiella pneumoniae, in the experiment on Bacillus subtilis, in the experiment with Staphylococcus aureus and with Escherichia coli was greater than 100 µM throughout. The IC50 in the experiment on A549, in the experiment with WI-38, in the experiment on HeLa and in the experiment with MCF7 was greater than 50 µM throughout.

As to `C=C1CCC[C@@H]2[C@@](CO)(Cc3cc(C(=O)OC)c(O)c(OC)c3O)[C@H](C)CC[C@@]12C`, the MIC in the experiment with Klebsiella pneumoniae, against Bacillus subtilis, against Staphylococcus aureus and against Escherichia coli was greater than 100 µM throughout. Besides, the IC50 in the experiment on A549 was greater than 50 µM; with WI-38, 42.1 µM; in the experiment with HeLa, greater than 50 µM; in the experiment with MCF7, greater than 50 µM.

As for `C=C1CCC[C@H]2[C@](C)(CC3=C(O)C(=O)C=C(NCC(C)CC)C3=O)[C@@H](C)CC[C@]12C` (some centres not stated), the minimal inhibitory concentration (MIC) with Klebsiella pneumoniae was greater than 100 µM; in the experiment with Bacillus subtilis, 6.25 µM (≈ 2.59 µg/mL); against Staphylococcus aureus, 6.25 µM (≈ 2.59 µg/mL); in the experiment on Escherichia coli, greater than 100 µM. Moreover, the IC50 in the experiment with A549 was 8.9 µM; in the experiment on WI-38, 6.9 µM; with HeLa it was 4.8 µM; in the experiment on MCF7, 7.6 µM.

Regarding `C=C1CCC[C@@H]2[C@@](C)(Cc3cc(C(=O)OC)c(O)c(OC)c3O)[C@H](C)CC[C@@]12C`, the MIC against Klebsiella pneumoniae was greater than 100 µM; with Bacillus subtilis, 12.5 µM (≈ 5.03 µg/mL); against Staphylococcus aureus it was greater than 100 µM; with Escherichia coli, greater than 100 µM. Also, the concentration for half-maximal inhibition (IC50) with A549, in the experiment on WI-38, with HeLa and in the experiment with MCF7 was greater than 50 µM in each case.

As for `CC1(C)S[C@@H]2[C@H](NC(=O)[C@H](N)c3ccccc3)C(=O)N2[C@H]1C(=O)O` [AMPICILLIN], the minimal inhibitory concentration (MIC) in the experiment with Bacillus subtilis and with Staphylococcus aureus was 6.25 µM (≈ 2.18 µg/mL) throughout.

With `O=c1[nH]cc(F)c(=O)[nH]1` [FLUOROURACIL], the IC50 in the experiment on A549 was 4.7 µM; in the experiment on WI-38, 6.8 µM; in the experiment with HeLa, 5.3 µM; with MCF7 it was 5.6 µM.

On to `C=C1CCC[C@H]2[C@](C)(CC3=C(O)C(=O)C=C(OC)C3=O)[C@@H](C)CC[C@]12C` [ILIMAQUINONE], for which the MIC against Klebsiella pneumoniae was greater than 100 µM; with Bacillus subtilis, 6.25 µM (≈ 2.24 µg/mL); against Staphylococcus aureus, 6.25 µM (≈ 2.24 µg/mL); against Escherichia coli, greater than 100 µM. In addition, the concentration for half-maximal inhibition (IC50) in the experiment on A549 stood at 5.9 µM; in the experiment with WI-38 it was 9.7 µM; in the experiment on HeLa, 7.6 µM; in the experiment on MCF7 it was 8.3 µM.

For `NC[C@H]1O[C@H](O[C@H]2[C@H](O)[C@@H](O[C@H]3O[C@H](CO)[C@@H](O)[C@H](N)[C@H]3O)[C@H](N)C[C@@H]2N)[C@H](O)[C@@H](O)[C@@H]1O` [KANAMYCIN], the minimum inhibitory concentration (MIC) in the experiment on Klebsiella pneumoniae turned out to be 6.25 µM (≈ 3.03 µg/mL); in the experiment with Escherichia coli, 12.5 µM (≈ 6.06 µg/mL).

As usually defined, the MIC is the lowest concentration found to suppress growth. Lower therefore signals inhibition by little substance. What is called IC50 is the midpoint of a concentration-inhibition curve.
